According to patent US10301203B2, “Chloroperoxidase-catalyzed degradation of pharmaceutical pollutants in wastewater” (THE FLORIDA INTERNATIONAL UNIVERSITY BOARD OF TRUSTEES, priority 2017, dated 2019):
≈ marks a conversion by molar mass, not a printed value.

How the values were obtained:
[1] = MTT assay, cell viability; format: cell-based; details: human, MDA-MB-231 breast cancer cells, read-out: MTT incorporation (cell viability) as percentage of control
Method: After incubation, the medium was removed and formazan crystals were dissolved in detergent reagent following the manufacturer's instructions (ATCC). Optical density for each condition was determined at 570 nm. MTT incorporation was expressed as percentage of the control in the absence of compounds.

chloroperoxidase (CPO) [2] = target: T1, chloroperoxidase (CPO) (Leptoxyphium fumago, UniProt P04963); assay: CPO-catalyzed degradation in CPO-H2O2-Cl- system, LC-Q-TOF-MS; format: biochemical, Caldariomyces fumago; set-up: The isolation of CPO proposed in this study was a modification of the protocol reported by Morris and Hager (1966); made in house; host or cells: native producer
T1 sequence (P04963 21-319 limits assumed): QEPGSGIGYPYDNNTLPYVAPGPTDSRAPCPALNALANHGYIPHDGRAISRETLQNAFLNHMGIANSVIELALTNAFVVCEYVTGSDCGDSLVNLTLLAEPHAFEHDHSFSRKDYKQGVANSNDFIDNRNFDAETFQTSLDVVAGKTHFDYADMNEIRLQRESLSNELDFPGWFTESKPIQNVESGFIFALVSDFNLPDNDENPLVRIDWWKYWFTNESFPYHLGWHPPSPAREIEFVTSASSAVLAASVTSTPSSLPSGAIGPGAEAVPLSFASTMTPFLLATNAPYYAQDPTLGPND
Method: The mixture was centrifuged at 3,000 g in Centriprep® centrifugal filter unit with a 30,000 Dalton cut-off membrane (EMD Millipore, Billerica, Mass., USA). The yielded product was collected after being centrifuged for 1 min. Ethyl acetate was used to extract the filtrate while shaking vigorously, and the supernatant was evaporated to dryness using nitrogen gas. The dried metabolites were dissolved in H2O/methanol (95:5 v/v) to achieve a final concentration of 1 mg/L (ppm). Each sample was either stored in a freezer at −20° C. or immediately run in the LC-Q-TOF-MS mass spectrometer system.
Chromatographic separation and identification of metabolites was performed using the Agilent 1290 Infinity UPLC system coupled with Agilent 6530 Q-TOF mass spectrometer. The Agilent MassHunter Data Acquisition Software (rev. B0.06.00) was used to control the UPLC and the mass spectrometer. Mass Hunter Qualitative Data Analysis Software (Rev. B.07.00) was used for data mining and identification. An Agilent ZORBAX Eclipse plus C18 Rapid Resolution High Definition (RRHD) column (100 mm×1.8 μm) was applied, with the column temperature set at 30° C. via a thermostatted column compartment (TCC). An infinity 1290 automatic injector was used to inject 1 μL of the sample to the column. […]

chloroperoxidase (CPO) [3] = target: T1, chloroperoxidase (CPO); assay: CPO-catalyzed degradation of diclofenac and naproxen, HPLC; format: biochemical, C. fumago; set-up: CPO was isolated from the growth medium of C. fumago; made in house; host or cells: Caldariomyces fumago growth medium (native producer); details: for CPO concentration for complete degradation: 15 μmol/L drug, 0.1 mmol/L H2O2; for fraction of drug degraded within 1 min / time to complete degradation: optimum reaction condition; for pH of maximum degradation efficiency: pH range 2-6
Method: Enzymatic degradation of both drugs was carried out in 0.1 mol·L-1 phosphate buffer in a centrifugal tube with a total volume of 3.0 mL containing CPO (0.25-0.23 nmol·L-1), 20 mmol·L-1 KCl, and drugs (15 μmol·L^−1) at pH 2˜6 at 298K. The reaction was started by adding H2O2 (0.015-0.3 mmol·L^−1) in the absence of light under magnetic stirring and was continued for 20 min. The supernatant of the reaction mixture was extracted 3 times using ethyl acetate. The combined organic extract was concentrated by rotary evaporation (0.09 MPa, 308K) to remove the solvent. The extracts were then dissolved in acetonitrile and methanol, respectively, for HPLC (LC-20AT, Shimadzu) analysis. The mobile phase consisted of 80:20 (v/v) acetonitrile and water for diclofenac and 90:10 (v/v) methanol and water for naproxen, and the flow rate was 0.5 ml·min^−1. The detector was set at 274 nm and 235 nm for diclofenac and naproxen, respectively. The quantitative analysis of the target compounds was based on the standard curve (correlation coefficients were >0.999). The effect of reaction parameters (pH, concentration of enzyme/H2O2, and reaction time) on degradation efficiency was investigated and optimized.
All experiments were triplicated and data reported were mean values of three independent measurements.

C. pyrenoidosa = assay: Growth-inhibitory (eco-toxicity) test on freshwater green alga; format: cell-based, Chlorella pyrenoidosa; details: Auxenochlorella pyrenoidosa, 72 h; at the end of CPO-catalyzed degradation (product mixture of the named drug)
Method: Freshwater unicellular green alga, C. pyrenoidosa (provided by the Institute of Wuhan Hydrobiology, Chinese Academic of Science), was cultivated in nutrient media of blue green medium (BG11) at 298K and illuminated with cool-white fluorescent lights at a continuous light intensity of 2000 Lx. For cell experiments, C. pyrenoidosa was exposed, during its log growth phase, to the toxicant at five different concentrations (maintain final concentration ranging from 0.01 to 0.36 mg/L) for 3-4 days at 298K. The concentration of the alga was determined by monitoring the change of absorption at 680 nm (Ma et al., 2006). The toxicity tests for each drug concentration were conducted in triplicate.
The growth inhibition rate for each sample was calculated.
However, toxicity evaluation about the products from diclofenac and naproxen are not readily available. Biological assays offer a direct measure to evaluate the magnitude of the potential health risk of chemicals. Therefore, a growth-inhibitory test was carried out using C. Pyrenoidosa.

chloroperoxidase (CPO) [4] = target: T1, chloroperoxidase (CPO); assay: CPO-catalyzed degradation of CBZ, UV-Vis at 285 nm; format: biochemical, Caldariomyces fumago; set-up: The isolation of CPO proposed in this study was a modification of the protocol reported by Morris and Hager (1966); made in house; host or cells: native producer; details: 20 mM Cl-, 0.07 mM CBZ, 0.07 mM H2O2, 2.5 nM CPO
Method: A VARIAN UV-Vis spectrophotometer (Cary 200 Bio) was used to collect the UV spectra of the degradation products. The drug solution was scanned by dissolving 0.07 mM CBZ in 100 mM KH2PO4 buffer with 20 mM KCl at pH 2.75. The same solution was monitored after being mixed with 0.35 mM H2O2. UV spectra were recorded after the addition of 5 nM CPO for 1 min., 2.5 min., and 4 min.
The effect of the concentration of chloride was investigated. Degradation was carried out in 100 mM phosphate buffer at pH 3.0 with 0.07 mM CBZ and 0.07 mM H2O2. Concentration of chloride was increased from 0 to 20 mM. 285 nm wavelength was monitored immediately after 2.5 nM CPO was added.
The degradation rate at pH range of 2.0 to 5.0 was investigated to probe the effect of pH on the CPO-catalyzed reaction. The reaction was carried out in 100 mM phosphate buffer with 20 mM KCl, 0.07 mM CBZ, and 0.07 mM H2O2. […] 285 nm wavelength was monitored immediately after the addition of 2.5 nM CPO. The calculated time was 0.2 to 0.4 min.
The degradation rate of CBZ was determined by different concentrations of H2O2, ranging from 0.07 to 0.71 mM, in 100 mM phosphate buffer with 20 mM KCl and 0.07 mM CBZ at pH 3.0. A wavelength of 285 nm was monitored immediately after the addition of 5 nM CPO. The degradation rate was calculated at 0.1 to 0.3 min.
The rate was calculated by monitoring absorbance at 285 nm from 0.1 to 0.2 min. […]

| Compound | viability at 24 h, 0.0425 μg/ml [1] [%] | viability at 24 h, 0.85 μg/ml [1] [%] | viability at 24 h, 1.7 μg/ml [1] [%] | degradation efficiency (chloroperoxidase (CPO) [2]; 62.45 μM SMZ, 1.3 nM CPO, H2O2 added stepwise, 30 min) [%] | CPO concentration for complete degradation (chloroperoxidase (CPO) [3]) | fraction of drug degraded within 1 min (chloroperoxidase (CPO) [3]) | time to complete degradation (chloroperoxidase (CPO) [3]) [min] | pH of maximum degradation efficiency (chloroperoxidase (CPO) [3]) | EC50 (C. pyrenoidosa) [µg/mL] | optimum pH for degradation (chloroperoxidase (CPO) [4]) | degradation efficiency (chloroperoxidase (CPO) [2]; 10.59 μM (2.5 mg/L) CBZ, 107.19 μM H2O2, 2.9 nM CPO, 10 min) [%] |
| --- | --- | --- | --- | --- | --- | --- | --- | --- | --- | --- | --- |
| Cc1cc(C)nc(NS(=O)(=O)c2ccc(N)cc2)n1 [SMZ, Sulfamethazine] | 80 | 50 | 40 | 100 | – | – | – | – | – | – | – |
| O=C([O-])Cc1ccccc1Nc1c(Cl)cccc1Cl.[Na+] [diclofenac, 2-[(2,6-dichlorophenyl)amino]benzeneacetic acid; sodium salt] | – | – | – | – | above 5.0 nmol·L^−1 | about 70% | 9 | ~3.2 | 0.25 | – | – |
| NC(=O)N1c2ccccc2C=Cc2ccccc21 [CBZ, Carbamazepine] | 80 | 60 | 45 | – | – | – | – | – | – | 3.0 | 100 |
| COc1ccc2cc(C(C)C(=O)O)ccc2c1 (stereo not shown) [naproxen, 2-(6-methoxynaphthalen-2-yl)propionic acid] | – | – | – | – | > 20.0 nmol/L | ~75% | 7 | ~3.2 | 0.33 (≈ 1.43 µM) | – | – |
